Data: patent US7713969B2, “Compositions and methods for treatment of cancer” (ArQule, Inc., priority 2005, dated 2010)

Assays:
[1] = tested on: MDA-MB-231 cells or Paca-2 cells; assay: Cell survival in six-well plates, Wright-Giemsa stain (Example 77); format: cell-based; settings: Homo sapiens; 0.1-2 μM, cultures observed 10-15 days; cell line of the IC50 not stated
Procedure: Exponentially growing MDA-MB-231 cells or Paca-2 cells were seeded at 1,000 cells per well in six-well plates and allowed to attach for 24 hours. MDA-MB-231 and Paca-2 cells were cultured in DMEM supplemented with 10% (v/v) fetal calf serum (FCS) and 5 ml Penicillin/Streptomycin at 37° C. in 5% CO2. MDA-MB-231 and Paca-2 were established estrogen receptor negative human breast cancer and pancreatic carcinoma cell lines, respectively. (±)-cis-3-(5,6-dihydro-4H-pyrrolo[3,2,1-ij]quinolin-1yl)-4(1H-indol-3-yl)pyrrolidine-2,5-dione or (±)-trans-3-(5,6-dihydro-4H-pyrrolo[3,2,1-ij]quinolin-1-yl)-4(1H-indol-3-yl)pyrrolidine-2,5-dione were each dissolved at a concentration of 10 mM in DMSO, and separately added to cells at a concentration of 0.1, 0.25, 0.5, 1 or 2 μM. Control plates received DMSO alone, at the same percentage of total culture volume as that administered in conjunction with the highest concentration of drug. Cell cultures were observed daily for 10-15 days, then fixed and stained with modified Wright-Giemsa stain (Sigma). Treatment with (±)-cis-3-(5,6-dihydro-4H-pyrrolo [3,2,1-ij]quinolin-1yl)-4(1H-indol-3-yl)pyrrolidine-2,5-dione or (±)-trans-3-(5,6-dihydro-4H-pyrrolo[3,2,1-ij]quinolin-1-yl)-4(1H-indol-3-yl)pyrrolidine-2,5-dione results in cell death of MDA-MB-231 cells or Paca-2 cells. See, e.g., FIG. 2.

[2] = tested on: MDA-MB-231 human breast cancer xenograft; assay: MDA-MB-231 xenograft, intraperitoneal 160 mg/kg (Example 81); format: in vivo, mice; settings: 160 mg/kg intraperitoneally, q3d×10, lipiodol vehicle
Procedure: Athymic female nude mice (CRL:NU/NU-nuBR) were injected subcutaneously in the flank with MDA-MB-231 human breast cancer cells (8×10^6 cells/mouse). Prior to injection, MDA-MB-231 cells were cultured in DMEM (Invitrogen #11965-092) supplemented with 10% (v/v) heat inactivated fetal bovine serum (FBS), 1% Hepes buffer solution (Invitrogen #15630-080) and 1% Penicillin/Streptomycin (Invitrogen #15140-122) at 37° C. in 5% CO2. Tumors were allowed to grow to approximately 50 mm^3 in size. Animals were randomized into three groups of five animals per group. At day ten post injection, mice with established tumors were treated intraperitoneally with (±)-cis-3-(5,6-dihydro-4H-pyrrolo[3,2,1-ij]quinolin-1yl)-4(1H-indol-3-yl) pyrrolidine-2,5-dione (160 mg/kg), (±)-trans-3-(5,6-dihydro-4H-pyrrolo[3,2,1-ij]quinolin-1-yl)-4(1H-indol-3-yl)pyrrolidine-2,5-dione (160 mg/kg) administered in iodinated poppy seed oil (lipiodol) as the vehicle at 10 mg/ml, or vehicle control. Drug or vehicle was administered every three days for a total of ten doses (q3d×10). Tumor size was evaluated periodically during the study. For each subject, tumor volume was calculated using the formula (L×W^2)/2 where L and W were the length and width of the tumor, respectively. The arithmetic mean tumor volume was calculated for each treatment group+/−standard error of the mean (SEM). […]

ERK1/2 = ERK1/2 phosphorylation, Western blot (Example 80); format: cell-based, human; settings: MDA-MB-231 cells, 100 ng/ml HGF/SF 10 minutes
Procedure: MDA-MB-231 cells were serum-deprived overnight (16 hours) in the absence or in the presence of the indicated concentrations of the separate enantiomers (+)-trans-3-(5,6-dihydro-4H-pyrrolo[3,2,1-ij]quinolin-1-yl)-4(1H-indol-3-yl)pyrrolidine-2,5-dione and (−)-trans-3-(5,6-dihydro-4H-pyrrolo[3,2,1-ij]quinolin-1-yl)-4(1H-indol-3-yl)pyrrolidine-2,5-dione. Cells were treated with 100 ng/ml recombinant human Hepatocyte Growth Factor/Scatter Factor (HGF/SF) (R&D Systems #294-HG) for 10 minutes. Whole cell extracts were prepared in lysis buffer (20 mM Trwas-HC1 pH 7.5, 150 mM NaCl, 1 mM Na2EDTA, 1 mM EGTA, 1% Triton X-100, 2.5 mM sodium pyrophosphate, 1 mM beta-glycerophosphate, 1 mM Na3VO4, 1 μg/ml leupeptin, 1 mM phenylmethylsulfonyl fluoride) and sonicated. Protein concentration was measured by Bradford assay using the BioRad reagent (BioRad, Hercules, Calif.), according to the manufacturer's directions. Samples (50 μg of protein) were resolved by 8% SDS-PAGE under reducing conditions, and transferred onto a PVDF membrane (BioRad). […] Proteins were detected by incubation overnight at 4° C. in TBS-T with 5% milk and either a polyclonal antibody against phosphorylated c-Met (#3121), phosphorylated Erk1/2 (#9101), total Erk1/2 protein (#9102) (Cell Signaling Technology); or a monoclonal antibody against […] (A-5441) (Sigma), which was used as a control for total protein loading. […]

[3] = tested on: HT29 human colon cancer xenograft; assay: Colon cancer xenograft model (Example 87); format: in vivo, mice; settings: for optimal tumor growth inhibition: daily 5 days on/2 off, 20 treatments
Procedure: In this human colon cancer xenograft model HT29 human colon cancer cells were inoculated subcutaneously into female athymic nude mice (5×10^6 cells/mouse) and allowed to form palpable tumors. Once the tumors reached approximately 60 mm^3, the animals were treated orally with either (−)-trans-3-(5,6-dihydro-4H-pyrrolo[3,2,1-ij]quinolin-1-yl)-4(1H-indol-3-yl)pyrrolidine-2,5-dione at 200 mg/kg or 300 mg/kg, or vehicle control daily (5 consecutive days, followed by a 2 day dosing holiday). (−)-trans-3-(5,6-dihydro-4H-pyrrolo[3,2,1-ij]quinolin-1-yl)-4(1H-indol-3-yl)pyrrolidine-2,5-dione was formulated in PEG 400:20% Vitamin E TPGS (60:40). The animals received a total of 20 treatments of either (−)-trans-3-(5,6-dihydro-4H-pyrrolo[3,2,1-ij]quinolin-1-yl)-4(1H-indol-3-yl) pyrrolidine-2,5-dione or vehicle control. Tumors were measured throughout treatment and the post-treatment observation period. Each point represents the mean±SEM of ten tumors. (See FIG. 11)

SMILES | IC50 [1] | reduction of normalized mean tumor volume compared to vehicle treated control [2] | phosphorylation of ERK1/2 (ERK1/2) | change in body weight ([3]; 200 mg/kg or 300 mg/kg oral administration) | optimal tumor growth inhibition ([3]; 200 mg/kg orally) | optimal tumor growth inhibition ([3]; 300 mg/kg orally)
O=C1NC(=O)[C@@H](c2cn3c4c(cccc24)CCC3)[C@@H]1c1c[nH]c2ccccc12 (racemic) [(±)-Trans-3-(5,6-dihydro-4H-pyrrolo[3,2,1-ij]quinolin-1-yl)-4(1H-indol-3-yl)pyrrolidine-2,5-dione] | 500 nM | 43.5% |  |  |  | 
O=C1NC(=O)C(c2cn3c4c(cccc24)CCC3)C1c1c[nH]c2ccccc12 (single isomer, unassigned; (-)) |  |  | decreases the phosphorylation of ERK1/2 | no significant change in body weight | 39% | 55%
